#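 Tested at 5 concentrations; 48 h exposure; 96-well plates; endpoints linearly interpolated, else capped at highest concentration. GI50 = concentration required for 50% inhibition of growth.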 Activity calls are given as the source filed them. Rule as the data show it: active = GI50 up to about 1.1 µM and inactive = higher.
# Tests used:
# Assay in all cases: inhibition of tumour cell growth, NCI panel, 48 h
# DU-145 = tested on: DU-145
# HCT-116 = tested on: HCT-116
# IGROV-1 = tested on: IGROV-1
# T47D = tested on: T47D
# UO-31 = tested on: UO-31
# SK-MEL-2 = tested on: SK-MEL-2
# MCF7 = tested on: MCF7
# A498 = tested on: A498
# U-251 = tested on: U-251
# OVCAR-4 = tested on: OVCAR-4
# MDA-MB-435 = tested on: MDA-MB-435
# HCC 2998 = tested on: HCC 2998
# COLO 205 = tested on: COLO 205
# HOP-62 = tested on: HOP-62
# OVCAR-3 = tested on: OVCAR-3
# SK-MEL-5 = tested on: SK-MEL-5
# OVCAR-5 = tested on: OVCAR-5
# HCT-15 = tested on: HCT-15
# SW-620 = tested on: SW-620
# A549 = tested on: A549
# NCI-H460 = tested on: NCI-H460
# HT-29 = tested on: HT-29
# SF-268 = tested on: SF-268
# MDA-MB-231 = tested on: MDA-MB-231
# HOP-92 = tested on: HOP-92
# M14 = tested on: M14
# NCI-H23 = tested on: NCI-H23
# MOLT-4 = tested on: MOLT-4
# HL-60 = tested on: HL-60
# NCI-H522 = tested on: NCI-H522
# TK-10 = tested on: TK-10
# EKVX = tested on: EKVX
# ACHN = tested on: ACHN
# CCRF-CEM = tested on: CCRF-CEM
# KM12 = tested on: KM12
# UACC-257 = tested on: UACC-257
# NCI/ADR-RES = tested on: NCI/ADR-RES
# SNB-19 = tested on: SNB-19
# MDA-N = tested on: MDA-N
# UACC-62 = tested on: UACC-62
# SN12C = tested on: SN12C
# K562 = tested on: K562
# Hs-578T = tested on: Hs-578T
# SK-MEL-28 = tested on: SK-MEL-28
# CAKI-1 = tested on: CAKI-1
# RPMI-8226 = tested on: RPMI-8226
# SF-539 = tested on: SF-539
# LOX IMVI = tested on: LOX IMVI
# PC-3 = tested on: PC-3
# Malme-3M = tested on: Malme-3M
# BT-549 = tested on: BT-549
# SF-295 = tested on: SF-295
# RXF 393 = tested on: RXF 393
# SK-OV-3 = tested on: SK-OV-3
# OVCAR-8 = tested on: OVCAR-8
# SNB-75 = tested on: SNB-75
# 786-0 = tested on: 786-0
# NCI-H226 = tested on: NCI-H226
compound,measurement,setting,value
COC(=O)C1=C(C(=O)OC)SC2(S1)C1=C(CCCC1)SC(C(=O)OC)=C2C(=O)OC,GI50,DU-145,1.64 µM (inactive)
same,GI50,HCT-116,1.52 µM (inactive)
same,GI50,IGROV-1,8.32 µM (inactive)
same,GI50,T47D,2.54 µM (inactive)
same,GI50,UO-31,4.58 µM (inactive)
same,GI50,SK-MEL-2,15.5 µM (inactive)
same,GI50,MCF7,2.61 µM (inactive)
same,GI50,A498,6.21 µM (inactive)
same,GI50,U-251,6.67 µM (inactive)
same,GI50,OVCAR-4,12.2 µM (inactive)
same,GI50,MDA-MB-435,2.81 µM (inactive)
same,GI50,HCC 2998,12.3 µM (inactive)
same,GI50,COLO 205,9.25 µM (inactive)
same,GI50,HOP-62,5.62 µM (inactive)
same,GI50,OVCAR-3,6.89 µM (inactive)
same,GI50,SK-MEL-5,10.1 µM (inactive)
same,GI50,OVCAR-5,12.6 µM (inactive)
same,GI50,HCT-15,4.39 µM
same,GI50,SW-620,2.09 µM (inactive)
same,GI50,A549,14.6 µM (inactive)
same,GI50,NCI-H460,3.84 µM (inactive)
same,GI50,HT-29,2.84 µM (inactive)
same,GI50,SF-268,9.71 µM (inactive)
same,GI50,MDA-MB-231,15.8 µM (inactive)
same,GI50,HOP-92,7.82 µM (inactive)
same,GI50,M14,16.9 µM (inactive)
same,GI50,NCI-H23,15.8 µM (inactive)
same,GI50,MOLT-4,1.93 µM (inactive)
same,GI50,HL-60,2.91 µM (inactive)
same,GI50,NCI-H522,1.72 µM (inactive)
same,GI50,TK-10,10.9 µM (inactive)
same,GI50,EKVX,13.3 µM (inactive)
same,GI50,ACHN,6.05 µM (inactive)
same,GI50,CCRF-CEM,1.7 µM (inactive)
same,GI50,KM12,5.74 µM (inactive)
same,GI50,UACC-257,13.1 µM (inactive)
same,GI50,NCI/ADR-RES,17.9 µM (inactive)
same,GI50,SNB-19,14.5 µM (inactive)
same,GI50,MDA-N,3.9 µM (inactive)
same,GI50,UACC-62,12.7 µM (inactive)
same,GI50,SN12C,2.76 µM (inactive)
same,GI50,K562,1.62 µM (inactive)
same,GI50,Hs-578T,15.9 µM (inactive)
same,GI50,SK-MEL-28,9.29 µM (inactive)
same,GI50,CAKI-1,4.06 µM (inactive)
same,GI50,RPMI-8226,0.586 µM (active)
same,GI50,SF-539,1.51 µM (inactive)
same,GI50,LOX IMVI,2.83 µM (inactive)
same,GI50,PC-3,5.02 µM (inactive)
same,GI50,Malme-3M,11.4 µM (inactive)
same,GI50,BT-549,11.7 µM (inactive)
same,GI50,SF-295,14.6 µM (inactive)
same,GI50,RXF 393,2.33 µM (inactive)
same,GI50,SK-OV-3,14.9 µM (inactive)
same,GI50,OVCAR-8,6.32 µM (inactive)
C=CC(O)(CBr)CCC(Br)C(=C)C (configuration not stated),GI50,DU-145,> 10 µM (inactive)
same,GI50,HCT-116,> 10 µM (inactive)
same,GI50,IGROV-1,> 10 µM (inactive)
same,GI50,SNB-75,> 10 µM (inactive)
same,GI50,T47D,> 10 µM (inactive)
same,GI50,SK-MEL-2,> 10 µM (inactive)
same,GI50,MCF7,> 10 µM (inactive)
same,GI50,A498,> 10 µM (inactive)
same,GI50,U-251,> 10 µM (inactive)
same,GI50,OVCAR-4,> 10 µM (inactive)
same,GI50,MDA-MB-435,> 10 µM (inactive)
same,GI50,HCC 2998,> 10 µM (inactive)
same,GI50,COLO 205,> 10 µM (inactive)
same,GI50,HOP-62,> 10 µM (inactive)
same,GI50,OVCAR-3,> 10 µM (inactive)
same,GI50,SK-MEL-5,> 10 µM (inactive)
same,GI50,OVCAR-5,> 10 µM (inactive)
same,GI50,HCT-15,> 10 µM
same,GI50,SW-620,> 10 µM (inactive)
same,GI50,A549,> 10 µM (inactive)
same,GI50,NCI-H460,> 10 µM (inactive)
same,GI50,HT-29,> 10 µM (inactive)
same,GI50,SF-268,> 10 µM (inactive)
same,GI50,MDA-MB-231,> 10 µM (inactive)
same,GI50,M14,> 10 µM (inactive)
same,GI50,NCI-H23,> 10 µM (inactive)
same,GI50,MOLT-4,> 10 µM (inactive)
same,GI50,HL-60,> 10 µM (inactive)
same,GI50,NCI-H522,> 10 µM (inactive)
same,GI50,TK-10,> 10 µM (inactive)
same,GI50,EKVX,> 10 µM (inactive)
same,GI50,ACHN,> 10 µM (inactive)
same,GI50,CCRF-CEM,> 10 µM (inactive)
same,GI50,KM12,> 10 µM (inactive)
same,GI50,UACC-257,> 10 µM (inactive)
same,GI50,NCI/ADR-RES,> 10 µM (inactive)
same,GI50,SNB-19,> 10 µM (inactive)
same,GI50,MDA-N,> 10 µM (inactive)
same,GI50,UACC-62,> 10 µM (inactive)
same,GI50,SN12C,> 10 µM (inactive)
same,GI50,K562,> 10 µM (inactive)
same,GI50,Hs-578T,> 10 µM (inactive)
same,GI50,SK-MEL-28,> 10 µM (inactive)
same,GI50,786-0,> 10 µM (inactive)
same,GI50,CAKI-1,> 10 µM (inactive)
same,GI50,RPMI-8226,> 10 µM (inactive)
same,GI50,SF-539,> 10 µM (inactive)
same,GI50,LOX IMVI,> 10 µM (inactive)
same,GI50,PC-3,> 10 µM (inactive)
same,GI50,Malme-3M,> 10 µM (inactive)
same,GI50,BT-549,> 10 µM (inactive)
same,GI50,SF-295,> 10 µM (inactive)
same,GI50,RXF 393,> 10 µM (inactive)
same,GI50,SK-OV-3,> 10 µM (inactive)
same,GI50,OVCAR-8,> 10 µM (inactive)
same,GI50,NCI-H226,> 10 µM (inactive)
Cc1cc2nc(N3C(=O)/C(=C/c4ccc(Oc5ccccc5)cc4)N=C3c3ccccc3)sc2cc1C,GI50,DU-145,> 100 µM (inactive)
same,GI50,HCT-116,40.6 µM (inactive)
same,GI50,IGROV-1,37.4 µM (inactive)
same,GI50,SNB-75,62.2 µM (inactive)
same,GI50,T47D,42.3 µM (inactive)
same,GI50,UO-31,50.7 µM (inactive)
same,GI50,SK-MEL-2,23.3 µM (inactive)
same,GI50,MCF7,24.2 µM (inactive)
same,GI50,A498,54.7 µM (inactive)
same,GI50,U-251,64.6 µM (inactive)
same,GI50,OVCAR-4,45.7 µM (inactive)
same,GI50,MDA-MB-435,19.5 µM (inactive)
same,GI50,HCC 2998,40 µM (inactive)
same,GI50,COLO 205,20.9 µM (inactive)
same,GI50,HOP-62,> 100 µM (inactive)
same,GI50,OVCAR-3,59.3 µM (inactive)
same,GI50,SK-MEL-5,30.8 µM (inactive)
same,GI50,OVCAR-5,58.1 µM (inactive)
same,GI50,HCT-15,29.4 µM
same,GI50,SW-620,28.2 µM (inactive)
same,GI50,A549,48.2 µM (inactive)
same,GI50,NCI-H460,32.1 µM (inactive)
same,GI50,HT-29,31.6 µM (inactive)
same,GI50,SF-268,63.8 µM (inactive)
same,GI50,MDA-MB-231,> 100 µM (inactive)
same,GI50,HOP-92,95.5 µM (inactive)
same,GI50,M14,51.8 µM (inactive)
same,GI50,NCI-H23,42.7 µM (inactive)
same,GI50,MOLT-4,30.2 µM (inactive)
same,GI50,HL-60,23.6 µM (inactive)
same,GI50,NCI-H522,24.6 µM (inactive)
same,GI50,TK-10,59.4 µM (inactive)
same,GI50,EKVX,42.6 µM (inactive)
same,GI50,ACHN,> 100 µM (inactive)
same,GI50,CCRF-CEM,26.7 µM (inactive)
same,GI50,KM12,26.1 µM (inactive)
same,GI50,UACC-257,29.2 µM (inactive)
same,GI50,NCI/ADR-RES,26.2 µM (inactive)
same,GI50,SNB-19,> 100 µM (inactive)
same,GI50,MDA-N,25.2 µM (inactive)
same,GI50,UACC-62,35.4 µM (inactive)
same,GI50,SN12C,> 100 µM (inactive)
same,GI50,K562,24.5 µM (inactive)
same,GI50,Hs-578T,52.2 µM (inactive)
same,GI50,SK-MEL-28,69.7 µM (inactive)
same,GI50,786-0,50.8 µM (inactive)
same,GI50,CAKI-1,50.5 µM (inactive)
same,GI50,RPMI-8226,24.4 µM (inactive)
same,GI50,LOX IMVI,44.6 µM (inactive)
same,GI50,PC-3,40 µM (inactive)
same,GI50,Malme-3M,70.6 µM (inactive)
same,GI50,BT-549,43 µM (inactive)
same,GI50,SF-295,33 µM (inactive)
same,GI50,RXF 393,58.9 µM (inactive)
same,GI50,SK-OV-3,> 100 µM (inactive)
same,GI50,OVCAR-8,71.8 µM (inactive)

# Source: ChEMBL document CHEMBL1201862, “PubChem BioAssay data set” (2004)
